18 compounds from patent US4775662A, “Leukotriene antagonists” (SmithKline Beckman Corporation, priority 1987, dated 1988) can be followed below.

The structures appear in SMILES notation. Structures can show the parent of a compound that is named as a salt.

Test [1] addresses T1, leukotriene D4 (LTD4) induced contraction of guinea pig tracheal tissues (Cavia porcellus, UniProt Q2NNR5).
T1 construct: Guinea pig (adult male albino Hartley strain) tracheal spiral strips; from tissue; host or cells: guinea pig trachea (spiral strips, adult male albino Hartley strain)
T1 sequence (Q2NNR5 1-340): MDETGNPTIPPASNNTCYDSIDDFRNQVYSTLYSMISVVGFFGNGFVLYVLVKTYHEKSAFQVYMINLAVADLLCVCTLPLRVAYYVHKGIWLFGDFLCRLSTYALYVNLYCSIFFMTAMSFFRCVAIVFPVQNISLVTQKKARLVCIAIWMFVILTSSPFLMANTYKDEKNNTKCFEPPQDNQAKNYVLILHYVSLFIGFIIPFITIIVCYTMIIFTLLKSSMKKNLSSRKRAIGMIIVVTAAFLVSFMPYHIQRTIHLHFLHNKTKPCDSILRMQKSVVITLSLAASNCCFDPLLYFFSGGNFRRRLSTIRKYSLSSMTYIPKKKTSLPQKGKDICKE
The test is described as follows: In vitro inhibition of LTD4-induced contraction of guinea pig tracheal spiral strips (pA2). The note with it: for Kb: In vitro, LTD4, guinea pig trachea, EC30 relative to carbachol, 30 min pretreatment. The format is cell-based, guinea pig (adult male albino Hartley strain). On the procedure: (§1) The leukotriene antagonist activity of the compounds of this invention is measured by the ability of the compound to inhibit leukotriene induced contraction of guinea pig tracheal tissues in vitro and to inhibit leukotriene induced bronchoconstriction in guinea pigs in vivo. The following methodologies were employed:
In vitro: Guinea pig (adult male albino Hartley strain) tracheal spiral strips of approximate dimensions 2 to 3 mm cross-sectional width and 3.5 cm length were bathed in modified Krebs buffer in jacketed 10 ml tissue bath and continously aerated with 95% O2 /5% CO2. The tissues were connected via silk suture to force displacement transducers for recording isometric tension. The tissues were equilibrated for 1 hr., pretreated for 15 minutes with meclofenamic acid (1 μM) to remove intrinsic prostaglandin responses, and then pretreated for an additional 30 minutes with either the test compound or vehicle control. A cumulative concentration-response curve for LTD4 on triplicate tissues was generated by successive increases in the bath concentration of the LTD4. In order to minimize intertissue variability, the contractions elicited by LTD4 were standardized as a percentage of the maximum response obtained to a reference agonist, carbachol (10 μM).
(§2) Calculations: The averages of the triplicate LTD4 concentration-response curves both in the presence and absence of the test compound were plotted on log graph paper. The concentration of LTD4 needed to elicit 30% of the contraction elicited by carbachol was measured and defined as the EC30. The pA2 value for the test compound was determined by the following equations: [formula] In vivo: Anesthetized, spontaneously breathing guinea pigs (Adult male albino Hartley strain) were monitored on a Buxco pulmonary mechanics computer. Changes in airway resistance (RL) were calculated by the computer on a breath-by-breath basis at isovolumic points from signals measuring airflow and transpulmonary pressure using differential pressure transducers. Animals received either test compound or vehicle control intravenously via the jugular vein. LTD4 was then injected into the jugular vein. The bronchoconstriction produced was reflected by % changes in airways resistance relative to the baseline values obtained prior to injection of the test compound or vehicle control. Each guinea pig received either vehicle control or test compound.

Test [2] has as its system leukotriene (LTD4) induced bronchoconstriction in guinea pigs. Description: In vivo inhibition of LTD4-induced bronchoconstriction in anesthetized, spontaneously breathing guinea pigs (airway resistance, RL). Also on record: species or system guinea pig (adult male albino Hartley strain). Particulars: Cavia porcellus, intravenous, LTD4 challenge, guinea pig, read-out: RL (average % inhibition of change in airway resistance). As for the experimental part:
as §1, §2
Calculations: The average of 3-6 animals per treatment was calculated using the % changes in the pulmonary parameters for control and test compound-treated animals. The average % inhibition by the test compound was calculated from the following equation: [formula]

With `CCCCCCCCCCCC/C=C\[C@H](SCCC(=O)O)[C@H](O)CCC(=O)O` (relative stereo) [Example 2, 4-hydroxy-5-[(2-carboxyethyl)thio]-6(Z)-nonadecenoic acid], the Kb in test [1] was 0.631 µM. Moreover, the inhibition in vivo at 5 mg/kg in test [2] worked out at 91%. Taken in the same sequence, the figures for `CCCCCCCCCCCC/C=C\[C@H](SCCC(=O)NCC(=O)O)[C@H](O)CCC(=O)O` (relative stereo) [Example 3, 5-[(3-carboxymethylamino-3-oxopropyl)thio]-4-hydroxy-6(Z)-nonadecenoic acid] were 0.631 µM and 36%. For `CCCCCCCCCCCC/C=C\[C@H](SCCC(=O)N(C)CC(=O)O)[C@H](O)CCC(=O)O` (relative stereo) [Example 4, 5-[(3-carboxymethyl-N-methylamino-3-oxopropyl)thio]-4-hydroxy-6(Z)-nonadecenoic acid], the inhibition in vivo at 5 mg/kg in test [2] stood at 90%.

Turning to `CCCCCCCCCCCC/C=C\[C@H](SCC(=O)O)[C@H](O)CCC(=O)O` (relative stereo) [Example 5, 5-[(carboxymethyl)thio]-4-hydroxy-6(Z)-nonadecenoic acid], the Kb in test [1] was 1.26 µM.

For the compound `CCCCCCCCCCCC/C=C\[C@H](SCCCC(=O)O)[C@H](O)CCC(=O)O` (relative stereo) [Example 6, 5-[(3-carboxypropyl)thio]-4-hydroxy-6(Z)-nonadecenoic acid], the Kb in test [1] is 0.631 µM. In addition, in test [2], the inhibition in vivo at 5 mg/kg was 88%. For `CCCCCCCCCCCC/C=C\[C@H](SCCC(N)=O)[C@H](O)CCC(=O)O` (relative stereo) [Example 7, 5-[[2-(aminocarbonyl)ethyl]thio]-4-hydroxy-6(Z)-nonadecenoicacid] the same measures were 7.94 µM and 38%. With `CCCCCCCCCCCC/C=C\[C@H](SCCC(=O)O)[C@H](O)CCC(N)=O` (relative stereo) [Example 12, 5-[(2-carboxyethyl)thio]-4-hydroxy-6(Z)-nonadecenamide], the Kb in test [1] was 3.98 µM. On the same count and under the same terms, the figure for `CCCCCCCCCC/C=C\[C@H](SCCC(=O)O)[C@H](O)CCC(=O)O` (relative stereo) [Example 14, 4-hydroxy-5-[(2-carboxyethyl)thio]-6(Z)-heptadecenoic acid] is 5.01 µM.

Consider `CCCCCCCCCCCCCC/C=C\[C@H](SCCC(=O)O)[C@H](O)CCC(=O)O` (relative stereo) [Example 15, 4-hydroxy-5-[(2-carboxyethyl)thio]-6(Z)-heneicosenoic acid], for which the Kb in test [1] is 7.94 µM. Consider `CCCCCCCCCCCC/C=C\[C@H](SCC(N)C(=O)NCC(=O)O)[C@H](O)CCC(=O)O` (single isomer, unassigned; isomer 4) [Example 1(i) 4(R),5(S) isomer, hydrate], for which, in test [1], the Kb is 6.31 µM. For the same compound, in test [2], the inhibition in vivo at 5 mg/kg turned out to be 96%. In the case of `CCCCCCCCCCCC/C=C\[C@@H](SCC(N)C(=O)NCC(=O)O)[C@@H](O)CCC(=O)O` (single isomer, unassigned; isomer 5) [Example 1(i) 4(S),5(R) isomer, 5-[(2-amino-3-carboxymethylamino-3-oxopropyl)thio]-4-hydroxy-6(Z)-nonadecenoic acid], the Kb in test [1] is 10 µM. The “partial agonist (footnote to pA2)” value in test [1] (footnote (c) to pA2 5.0) is given as “partial agonist”. With `CCCCCCCCCCCC/C=C\[C@H](SCC(N)C(=O)O)[C@H](O)CCC(=O)O` (stereo partly drawn) [Example 8(c), 4(R)-Hydroxy-5(S)-[(2-amino-2-carboxyethyl)thio]-6(Z)-nonadecenoic acid, sodium salt], the Kb in test [1] was 7.94 µM.

With `CCCCCCCCCCCC/C=C\[C@@H](SCC(N)C(=O)O)[C@@H](O)CCC(=O)O` (stereo partly drawn) [Example 8(d), 4(S)-Hydroxy-5(R)-[(2-amino-2-carboxyethyl)thio]-6(Z)-nonadecenoic acid, sodium salt], the Kb in test [1] is 7.94 µM.

Turning to `CCCCCCCCCCCC/C=C\[C@H](SCC(N)C(=O)NCC(N)=O)[C@H](O)CCC(=O)O` (some centres unmarked) [Example 9], the Kb in test [1] is 3.16 µM. Further, in test [2], the inhibition in vivo at 5 mg/kg worked out at 98%.

Turning to `CCCCCCCCCCCC/C=C\C(SCCC(=O)O)C(O)CC(=O)O` (centres unmarked) [Example 10, 3-hydroxy-4-[(2-carboxyethyl)thio]-5(Z)-octadecenoic acid], in test [2], the inhibition in vivo at 10 mg/kg was found to be 88%.

For `CCCCCCCCCCCC/C=C\C(CCCC(=O)O)SCCC(=O)O` (centres unmarked) [Example 11, 5-[(2-carboxyethyl)thio]-6(Z)-non-adecenoic acid], the Kb in test [1] was 3.16 µM. For the same compound, the inhibition in vivo at 10 mg/kg in test [2] was 98%. Take `CCCCCCCCCCCC/C=C\C(SCC(N)C(=O)NCC(=O)O)C(O)CCC(N)=O` (centres unmarked) [Example 13]: the Kb in test [1] is 12.6 µM.

Turning to `CCCCCCCCCCCC/C=C\C(CCC(=O)O)SCCC(=O)O` (centres unmarked) [Example 16, 4-[(2-carboxyethyl)thio]-5(Z)-octadecenoic acid], the Kb in test [1] is 0.251 µM.
